Measurements reported in the kinase profiling compilation of Christmann-Franck et al. (2016).
Values joined by “and” are separate entries in the source; they are usually repeats but may differ in a detail not shown here. Equal entries are not always repeated.

Experiments:
Experiment in all cases: radiometric filter-binding kinase assay, Kinase HotSpot
Settings in all cases: compound 0.5 µM; ATP 10 µM
AKT3 (human) = AKT3 (human) (UniProt Q9Y243)
CAMK2A (human) = CAMK2A (human) (UniProt Q9UQM7)
CAMK2B (human) = CAMK2B (human) (UniProt Q13554)
CAMK2D (human) = CAMK2D (human) (UniProt Q13557)
CAMK2G (human) = CAMK2G (human) (UniProt Q13555)
CDK2 CCNE1 (human) = CDK2 CCNE1 (human) (UniProt P24941+P24864)
CDK4 CCND1 (human) = CDK4 CCND1 (human) (UniProt P24385+P11802)
CDK4 CCND3 (human) = CDK4 CCND3 (human) (UniProt P30281+P11802)
CDK6 CCND3 (human) = CDK6 CCND3 (human) (UniProt P30281+Q00534)
CLK1 (human) = CLK1 (human) (UniProt P49759)
DAPK2 (human) = DAPK2 (human) (UniProt Q9UIK4)
DAPK3 (human) = DAPK3 (human) (UniProt O43293)
FRK (human) = FRK (human) (UniProt P42685)
HIPK1 (human) = HIPK1 (human) (UniProt Q86Z02)
IKBKE (human) = IKBKE (human) (UniProt Q14164)
IRAK1 (human) = IRAK1 (human) (UniProt P51617)
ITK (human) = ITK (human) (UniProt Q08881)
JAK3 JH1 JH2 (human) = JAK3 JH1 JH2 (human) (UniProt P52333)
MAP4K2 (human) = MAP4K2 (human) (UniProt Q12851)
MKNK2 (human) = MKNK2 (human) (UniProt Q9HBH9)
PAK1 (human) = PAK1 (human) (UniProt Q13153)
PBK (human) = PBK (human) (UniProt Q96KB5)
PNCK (human) = PNCK (human) (UniProt Q6P2M8)
PRKACA (human) = PRKACA (human) (UniProt P17612)
PRKCA (human) = PRKCA (human) (UniProt P17252)
PRKD3 (human) = PRKD3 (human) (UniProt O94806)
PRKG1 (human) = PRKG1 (human) (UniProt Q13976)
RET (human) = RET (human) (UniProt P07949)
SGK3 (human) = SGK3 (human) (UniProt Q96BR1)
SRPK2 (human) = SRPK2 (human) (UniProt P78362)
SRPK3 (human) = SRPK3 (human) (UniProt Q9UPE1)
STK24 (human) = STK24 (human) (UniProt Q9Y6E0)
STK38 (human) = STK38 (human) (UniProt Q15208)
SYK (human) = SYK (human) (UniProt P43405)
TAOK1 (human) = TAOK1 (human) (UniProt Q7L7X3)
TBK1 (human) = TBK1 (human) (UniProt Q9UHD2)
TEC (human) = TEC (human) (UniProt P42680)
TGFBR2 (human) = TGFBR2 (human) (UniProt P37173)
TSSK2 (human) = TSSK2 (human) (UniProt Q96PF2)
VRK1 (human) = VRK1 (human) (UniProt Q99986)
CHEK1 (human) = CHEK1 (human) (UniProt O14757)
EPHB3 (human) = EPHB3 (human) (UniProt P54753)

Chain of PRKD3 (human) (O94806 whole entry, looked up): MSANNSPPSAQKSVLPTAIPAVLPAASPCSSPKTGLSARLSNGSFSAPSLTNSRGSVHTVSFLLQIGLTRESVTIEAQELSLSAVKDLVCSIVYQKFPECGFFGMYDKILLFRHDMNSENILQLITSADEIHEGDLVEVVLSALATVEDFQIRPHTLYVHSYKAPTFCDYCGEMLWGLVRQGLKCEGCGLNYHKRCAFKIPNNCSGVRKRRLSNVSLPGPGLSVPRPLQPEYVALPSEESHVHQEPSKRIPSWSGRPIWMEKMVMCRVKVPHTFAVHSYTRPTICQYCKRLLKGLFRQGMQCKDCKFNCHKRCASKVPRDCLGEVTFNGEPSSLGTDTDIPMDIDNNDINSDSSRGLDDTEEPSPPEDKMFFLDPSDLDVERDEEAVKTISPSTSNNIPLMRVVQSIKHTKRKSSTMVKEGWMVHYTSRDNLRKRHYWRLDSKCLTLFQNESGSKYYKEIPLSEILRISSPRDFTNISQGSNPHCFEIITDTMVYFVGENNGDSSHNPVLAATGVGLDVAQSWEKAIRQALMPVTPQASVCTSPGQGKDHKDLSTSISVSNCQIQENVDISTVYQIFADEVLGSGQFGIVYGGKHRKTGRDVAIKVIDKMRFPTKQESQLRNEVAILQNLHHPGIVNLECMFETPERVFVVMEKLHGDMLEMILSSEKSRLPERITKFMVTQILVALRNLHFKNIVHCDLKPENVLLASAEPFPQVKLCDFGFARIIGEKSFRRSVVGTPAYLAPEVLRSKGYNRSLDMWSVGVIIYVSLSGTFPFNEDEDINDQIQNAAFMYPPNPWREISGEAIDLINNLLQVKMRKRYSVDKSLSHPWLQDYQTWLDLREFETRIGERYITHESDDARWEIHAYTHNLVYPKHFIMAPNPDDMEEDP
Chain of CDK6 CCND3 (human) (P30281 whole entry, looked up): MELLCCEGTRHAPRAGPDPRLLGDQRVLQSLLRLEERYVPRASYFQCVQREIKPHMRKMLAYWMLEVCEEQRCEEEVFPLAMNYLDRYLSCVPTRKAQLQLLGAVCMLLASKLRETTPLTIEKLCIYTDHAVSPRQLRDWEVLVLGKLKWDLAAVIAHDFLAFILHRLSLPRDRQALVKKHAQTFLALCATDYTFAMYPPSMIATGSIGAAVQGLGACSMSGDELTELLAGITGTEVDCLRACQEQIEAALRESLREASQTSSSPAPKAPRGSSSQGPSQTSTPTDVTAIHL
Chain of CDK6 CCND3 (human) (Q00534 whole entry, looked up): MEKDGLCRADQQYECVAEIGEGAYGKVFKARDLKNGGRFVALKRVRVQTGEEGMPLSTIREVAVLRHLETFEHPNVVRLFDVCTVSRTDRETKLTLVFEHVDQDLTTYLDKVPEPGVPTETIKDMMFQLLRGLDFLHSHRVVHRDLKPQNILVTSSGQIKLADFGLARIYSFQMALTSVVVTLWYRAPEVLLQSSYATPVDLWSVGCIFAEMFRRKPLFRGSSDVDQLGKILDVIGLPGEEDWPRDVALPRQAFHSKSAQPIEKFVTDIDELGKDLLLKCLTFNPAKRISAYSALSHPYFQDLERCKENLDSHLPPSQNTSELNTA
Chain of PRKG1 (human) (Q13976 whole entry, looked up): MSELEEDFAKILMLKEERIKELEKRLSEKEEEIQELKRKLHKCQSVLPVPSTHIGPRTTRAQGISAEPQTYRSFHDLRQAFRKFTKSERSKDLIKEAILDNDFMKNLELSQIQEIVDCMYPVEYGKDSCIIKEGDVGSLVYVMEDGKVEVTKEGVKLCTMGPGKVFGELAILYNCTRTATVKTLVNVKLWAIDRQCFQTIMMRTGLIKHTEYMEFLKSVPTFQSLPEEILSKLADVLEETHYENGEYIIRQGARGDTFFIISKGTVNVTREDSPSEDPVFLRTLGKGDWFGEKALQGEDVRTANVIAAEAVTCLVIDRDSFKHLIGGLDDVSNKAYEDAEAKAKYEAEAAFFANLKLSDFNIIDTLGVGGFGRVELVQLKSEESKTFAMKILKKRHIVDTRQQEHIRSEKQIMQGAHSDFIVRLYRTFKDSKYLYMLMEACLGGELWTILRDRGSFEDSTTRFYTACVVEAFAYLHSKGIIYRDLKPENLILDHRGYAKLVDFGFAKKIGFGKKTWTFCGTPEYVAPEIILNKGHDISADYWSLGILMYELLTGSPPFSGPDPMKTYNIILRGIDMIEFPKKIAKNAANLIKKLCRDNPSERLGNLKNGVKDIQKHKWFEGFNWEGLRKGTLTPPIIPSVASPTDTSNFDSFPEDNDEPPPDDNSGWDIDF
Chain of PBK (human) (Q96KB5 whole entry, looked up): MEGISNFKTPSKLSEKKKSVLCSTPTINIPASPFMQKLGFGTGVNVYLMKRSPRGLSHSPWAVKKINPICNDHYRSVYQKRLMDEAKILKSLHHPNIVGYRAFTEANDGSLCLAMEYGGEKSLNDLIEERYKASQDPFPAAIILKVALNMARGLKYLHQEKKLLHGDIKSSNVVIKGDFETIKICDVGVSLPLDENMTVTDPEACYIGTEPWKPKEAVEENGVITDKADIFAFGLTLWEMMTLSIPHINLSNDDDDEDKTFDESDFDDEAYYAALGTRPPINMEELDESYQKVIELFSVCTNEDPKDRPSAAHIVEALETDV
Chain of TSSK2 (human) (Q96PF2 whole entry, looked up): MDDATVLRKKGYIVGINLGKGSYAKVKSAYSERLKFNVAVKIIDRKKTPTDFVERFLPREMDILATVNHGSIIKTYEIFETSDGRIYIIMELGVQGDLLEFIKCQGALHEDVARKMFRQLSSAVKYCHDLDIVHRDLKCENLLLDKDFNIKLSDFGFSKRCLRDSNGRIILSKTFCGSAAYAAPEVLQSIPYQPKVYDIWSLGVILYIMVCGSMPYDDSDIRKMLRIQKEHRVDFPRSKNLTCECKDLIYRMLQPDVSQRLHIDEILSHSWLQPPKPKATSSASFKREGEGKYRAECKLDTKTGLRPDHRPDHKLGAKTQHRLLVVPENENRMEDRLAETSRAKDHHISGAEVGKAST
Chain of VRK1 (human) (Q99986 whole entry, looked up): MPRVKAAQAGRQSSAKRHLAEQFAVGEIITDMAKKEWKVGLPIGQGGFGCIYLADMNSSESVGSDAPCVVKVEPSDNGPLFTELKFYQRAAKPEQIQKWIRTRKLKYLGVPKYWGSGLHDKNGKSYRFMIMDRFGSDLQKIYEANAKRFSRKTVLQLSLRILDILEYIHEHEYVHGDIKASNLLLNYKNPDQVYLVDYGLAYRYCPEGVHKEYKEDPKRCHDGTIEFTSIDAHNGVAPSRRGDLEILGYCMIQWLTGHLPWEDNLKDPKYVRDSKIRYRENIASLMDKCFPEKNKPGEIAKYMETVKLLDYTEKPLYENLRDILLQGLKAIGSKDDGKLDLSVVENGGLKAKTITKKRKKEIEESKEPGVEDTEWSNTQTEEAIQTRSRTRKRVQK
Chain of SGK3 (human) (Q96BR1 whole entry, looked up): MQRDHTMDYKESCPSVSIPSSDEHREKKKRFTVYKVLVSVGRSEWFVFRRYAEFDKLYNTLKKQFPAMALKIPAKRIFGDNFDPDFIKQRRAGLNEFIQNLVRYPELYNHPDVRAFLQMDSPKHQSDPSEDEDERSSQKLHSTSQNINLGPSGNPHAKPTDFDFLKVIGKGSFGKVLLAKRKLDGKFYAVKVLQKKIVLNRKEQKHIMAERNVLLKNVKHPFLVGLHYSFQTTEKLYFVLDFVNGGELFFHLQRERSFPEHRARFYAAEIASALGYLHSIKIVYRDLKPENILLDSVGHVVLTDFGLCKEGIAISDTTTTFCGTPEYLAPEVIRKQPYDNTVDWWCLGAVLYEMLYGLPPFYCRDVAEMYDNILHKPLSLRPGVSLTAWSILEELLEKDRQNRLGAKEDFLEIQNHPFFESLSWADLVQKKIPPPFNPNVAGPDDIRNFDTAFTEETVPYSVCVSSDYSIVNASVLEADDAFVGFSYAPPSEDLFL
Chain of TEC (human) (P42680 whole entry, looked up): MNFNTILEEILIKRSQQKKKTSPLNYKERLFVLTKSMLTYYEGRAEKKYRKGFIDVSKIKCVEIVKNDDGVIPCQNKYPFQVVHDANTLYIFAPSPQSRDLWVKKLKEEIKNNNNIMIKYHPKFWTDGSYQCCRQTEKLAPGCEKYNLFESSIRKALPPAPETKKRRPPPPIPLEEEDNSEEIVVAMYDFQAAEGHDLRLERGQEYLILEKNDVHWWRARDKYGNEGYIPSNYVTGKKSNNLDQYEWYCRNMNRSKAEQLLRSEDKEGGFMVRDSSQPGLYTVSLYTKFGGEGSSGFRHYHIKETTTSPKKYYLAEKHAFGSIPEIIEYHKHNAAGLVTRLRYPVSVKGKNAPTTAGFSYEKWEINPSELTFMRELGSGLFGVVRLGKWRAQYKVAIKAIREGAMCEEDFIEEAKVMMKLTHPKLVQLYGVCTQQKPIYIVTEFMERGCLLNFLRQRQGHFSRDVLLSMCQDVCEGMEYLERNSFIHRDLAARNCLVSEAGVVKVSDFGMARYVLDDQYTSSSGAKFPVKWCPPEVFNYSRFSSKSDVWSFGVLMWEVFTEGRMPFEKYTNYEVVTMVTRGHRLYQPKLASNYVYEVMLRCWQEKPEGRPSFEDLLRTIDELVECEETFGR
Chain of TGFBR2 (human) (P37173 whole entry, looked up): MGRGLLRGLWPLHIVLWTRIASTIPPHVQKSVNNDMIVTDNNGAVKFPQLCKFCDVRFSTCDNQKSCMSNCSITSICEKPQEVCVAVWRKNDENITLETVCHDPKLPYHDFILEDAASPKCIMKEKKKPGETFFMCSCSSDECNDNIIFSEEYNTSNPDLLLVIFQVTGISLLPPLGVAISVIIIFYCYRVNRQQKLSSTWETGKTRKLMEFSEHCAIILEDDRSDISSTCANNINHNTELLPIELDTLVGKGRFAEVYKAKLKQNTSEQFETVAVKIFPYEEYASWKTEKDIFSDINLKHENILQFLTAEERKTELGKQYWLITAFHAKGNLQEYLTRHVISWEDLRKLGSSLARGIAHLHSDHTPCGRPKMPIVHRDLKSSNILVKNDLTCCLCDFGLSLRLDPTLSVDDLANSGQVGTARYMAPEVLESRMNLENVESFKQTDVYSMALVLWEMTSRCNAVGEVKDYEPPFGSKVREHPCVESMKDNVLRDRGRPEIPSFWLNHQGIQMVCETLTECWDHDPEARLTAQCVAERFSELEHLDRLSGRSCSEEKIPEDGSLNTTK

SMILES: Oc1cccc(-c2nc(N3CCOCC3)c3oc4ncccc4c3n2)c1
- residual activity (AKT3 (human)): 99%
- residual activity (CAMK2A (human)): 93.7%
- residual activity (CAMK2B (human)): 98.2%
- residual activity (CAMK2D (human)): 96.2%
- residual activity (CAMK2G (human)): 100%
- residual activity (CDK2 CCNE1 (human)): 85.5%
- residual activity (CDK4 CCND1 (human)): 102%
- residual activity (CDK4 CCND3 (human)): 92.5%
- residual activity (CDK6 CCND3 (human)): 89.7%
- residual activity (CLK1 (human)): 85.2%
- residual activity (DAPK2 (human)): 117%
- residual activity (DAPK3 (human)): 93.1%
- residual activity (FRK (human)): 91.3%
- residual activity (HIPK1 (human)): 101%
- residual activity (IKBKE (human)): 98.8%
- residual activity (IRAK1 (human)): 84.2%
- residual activity (ITK (human)): 93.1%
- residual activity (JAK3 JH1 JH2 (human)): 99%
- residual activity (MAP4K2 (human)): 93%
- residual activity (MKNK2 (human)): 92.6%
- residual activity (PAK1 (human)): 97.6%
- residual activity (PBK (human)): 88.7%
- residual activity (PNCK (human)): 96.7%
- residual activity (PRKACA (human)): 99.5%
- residual activity (PRKCA (human)): 103%
- residual activity (PRKD3 (human)): 92.9%
- residual activity (PRKG1 (human)): 109% and 96.3%
- residual activity (RET (human)): 99.8%
- residual activity (SGK3 (human)): 95.8%
- residual activity (SRPK2 (human)): 97.3%
- residual activity (SRPK3 (human)): 95%
- residual activity (STK24 (human)): 100%
- residual activity (STK38 (human)): 99%
- residual activity (SYK (human)): 94.2%
- residual activity (TAOK1 (human)): 91.6%
- residual activity (TBK1 (human)): 93%
- residual activity (TEC (human)): 113%
- residual activity (TGFBR2 (human)): 102%
- residual activity (TSSK2 (human)): 102%
- residual activity (VRK1 (human)): 98.4%

SMILES: CCN(CC)CCNC(=O)c1c(C)[nH]c(/C=C2\C(=O)Nc3ccc(F)cc32)c1C
- residual activity (AKT3 (human)): 71.7%
- residual activity (CAMK2A (human)): 14.5%
- residual activity (CAMK2B (human)): 46.7%
- residual activity (CAMK2D (human)): 11.6%
- residual activity (CAMK2G (human)): 25.1%
- residual activity (CDK4 CCND1 (human)): 81%
- residual activity (CDK4 CCND3 (human)): 93%
- residual activity (CDK6 CCND3 (human)): 59.7%
- residual activity (CHEK1 (human)): 29.2%
- residual activity (CLK1 (human)): 23.3%
- residual activity (DAPK3 (human)): 74.2%
- residual activity (EPHB3 (human)): 77.4%
- residual activity (FRK (human)): 84.4%
- residual activity (HIPK1 (human)): 71.3%
- residual activity (IKBKE (human)): 45.6%
- residual activity (IRAK1 (human)): 31.4%
- residual activity (ITK (human)): 64.3%
- residual activity (JAK3 JH1 JH2 (human)): 80.7%
- residual activity (MAP4K2 (human)): 34.4%
- residual activity (MKNK2 (human)): 99.3%
- residual activity (PAK1 (human)): 118%
- residual activity (PBK (human)): 106%
- residual activity (PNCK (human)): 98.5%
- residual activity (PRKACA (human)): 89.1%
- residual activity (PRKCA (human)): 79.9%
- residual activity (PRKD3 (human)): 16.6%
- residual activity (PRKG1 (human)): 65.3% and 88.8%
- residual activity (RET (human)): 3.43%
- residual activity (SGK3 (human)): 101%
- residual activity (SRPK2 (human)): 95%
- residual activity (SRPK3 (human)): 102%
- residual activity (STK24 (human)): 39.7%
- residual activity (STK38 (human)): 93.8%
- residual activity (TAOK1 (human)): 71.5%
- residual activity (TEC (human)): 94.8%
- residual activity (TGFBR2 (human)): 92.5%
- residual activity (TSSK2 (human)): 72.9%
- residual activity (VRK1 (human)): 97.3%

SMILES: N#C/C(=C(/N)Sc1ccc(N)cc1)c1ccccc1C(F)(F)F
- residual activity (AKT3 (human)): 96.2%
- residual activity (CAMK2A (human)): 111%
- residual activity (CAMK2B (human)): 93.5%
- residual activity (CAMK2D (human)): 93.4%
- residual activity (CAMK2G (human)): 106%
- residual activity (CDK2 CCNE1 (human)): 95.4%
- residual activity (CDK4 CCND1 (human)): 106%
- residual activity (CDK4 CCND3 (human)): 108%
- residual activity (CDK6 CCND3 (human)): 103%
- residual activity (CHEK1 (human)): 97.5%
- residual activity (DAPK2 (human)): 112%
- residual activity (DAPK3 (human)): 102%
- residual activity (EPHB3 (human)): 96.7%
- residual activity (FRK (human)): 102%
- residual activity (HIPK1 (human)): 107%
- residual activity (IKBKE (human)): 102%
- residual activity (IRAK1 (human)): 100%
- residual activity (ITK (human)): 97.4%
- residual activity (JAK3 JH1 JH2 (human)): 101%
- residual activity (MAP4K2 (human)): 85.7%
- residual activity (MKNK2 (human)): 109%
- residual activity (PAK1 (human)): 94.3%
- residual activity (PBK (human)): 95.3%
- residual activity (PNCK (human)): 98.9%
- residual activity (PRKACA (human)): 109%
- residual activity (PRKCA (human)): 100%
- residual activity (PRKD3 (human)): 96.8%
- residual activity (PRKG1 (human)): 100% and 98.8%
- residual activity (RET (human)): 101%
- residual activity (SGK3 (human)): 105%
- residual activity (SRPK2 (human)): 99.5%
- residual activity (SRPK3 (human)): 96.3%
- residual activity (STK24 (human)): 89.3%
- residual activity (STK38 (human)): 93.1%
- residual activity (SYK (human)): 99.3%
- residual activity (TAOK1 (human)): 98.3%
- residual activity (TBK1 (human)): 98.1%
- residual activity (TEC (human)): 109%
- residual activity (TGFBR2 (human)): 113%
- residual activity (TSSK2 (human)): 94.2%
- residual activity (VRK1 (human)): 100%
